Measured values: ChEMBL document CHEMBL1141769, “Pursaethosides A-E, triterpene saponins from Entada pursaetha” (J Nat Prod, 2005)

How the values were obtained:
HT-29 = assay: Cytotoxicity against human HT-29 cells after 96 hrs by MTT assay; format: functional, cell-based; conditions: HT-29, 96 h
HCT-116 = assay: Cytotoxicity against human HCT116 cells after 96 hrs by MTT assay; format: functional, cell-based; conditions: HCT-116, 96 h

## CC(=O)N[C@H]1[C@H](O[C@H]2CC[C@]3(C)[C@H]4CC=C5[C@@H]6CC(C)(C)CC[C@]6(C(=O)O[C@@H]6O[C@H](CO)[C@@H](O)[C@H](O)[C@H]6O[C@@H]6OC[C@](O)(CO)[C@H]6O)[C@H](O)[C@H](O)[C@@]5(C)[C@]4(C)CC[C@H]3C2(C)C)O[C@H](CO[C@@H]2OC[C@H](O)[C@H](O)[C@H]2O)[C@@H](O)[C@@H]1O[C@@H]1OC[C@@H](O)[C@H](O)[C@H]1O [PURSAETHOSIDE C]
HT-29
  IC50: > 100 µg/mL
HCT-116
  IC50: > 100 µg/mL

## CC(=O)N[C@H]1[C@H](O[C@H]2CC[C@]3(C)[C@H]4CC=C5[C@@H]6CC(C)(C)CC[C@]6(C(=O)O[C@@H]6O[C@H](CO)[C@@H](O)[C@H](O)[C@H]6O[C@@H]6OC[C@](O)(CO)[C@H]6O)[C@H](O)C[C@@]5(C)[C@]4(C)CC[C@H]3C2(C)C)O[C@H](CO[C@@H]2OC[C@H](O)[C@H](O)[C@H]2O)[C@@H](O)[C@@H]1O[C@@H]1OC[C@@H](O)[C@H](O)[C@H]1O [PURSAETHOSIDE B]
HT-29
  IC50: > 100 µg/mL
HCT-116
  IC50: > 100 µg/mL
